According to PubChem BioAssay (NCI):
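Test compounds were applied to cells in 96-well plates for 48 hours at 5 doses. GI50 is the concentration that inhibits growth by half. TGI is the concentration that stops growth completely.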

Columns and labels:
Assay in all cases: growth of human tumour cells (NCI), 48 h
NCI-H226 lung = tested on: NCI-H226 lung
T-47D breast = tested on: T-47D breast
SK-MEL-2 melanoma = tested on: SK-MEL-2 melanoma
HCT-116 colon = tested on: HCT-116 colon
SF-295 CNS = tested on: SF-295 CNS
SF-539 CNS = tested on: SF-539 CNS
RXF 393 renal = tested on: RXF 393 renal
U251 CNS = tested on: U251 CNS
NCI-H460 lung = tested on: NCI-H460 lung
SR leukemia = tested on: SR leukemia
OVCAR-3 ovarian = tested on: OVCAR-3 ovarian
OVCAR-5 ovarian = tested on: OVCAR-5 ovarian
K-562 leukemia = tested on: K-562 leukemia
M14 melanoma = tested on: M14 melanoma
UACC-62 melanoma = tested on: UACC-62 melanoma
SNB-75 CNS = tested on: SNB-75 CNS
UO-31 renal = tested on: UO-31 renal
SK-OV-3 ovarian = tested on: SK-OV-3 ovarian
MALME-3M melanoma = tested on: MALME-3M melanoma
SN12C renal = tested on: SN12C renal
HT29 colon = tested on: HT29 colon
A549 NSCLC = tested on: A549 NSCLC
CCRF-CEM leukemia = tested on: CCRF-CEM leukemia
NCI-H23 lung = tested on: NCI-H23 lung
786-0 renal = tested on: 786-0 renal
KM12 colon = tested on: KM12 colon
HOP-62 NSCLC = tested on: HOP-62 NSCLC
ACHN renal = tested on: ACHN renal
MCF7 breast = tested on: MCF7 breast
A498 renal = tested on: A498 renal
SW-620 colon = tested on: SW-620 colon
MOLT-4 leukemia = tested on: MOLT-4 leukemia
OVCAR-8 ovarian = tested on: OVCAR-8 ovarian
NCI/ADR-RES ovarian = tested on: NCI/ADR-RES ovarian
PC-3 prostate = tested on: PC-3 prostate
RPMI-8226 leukemia = tested on: RPMI-8226 leukemia
HS 578T breast = tested on: HS 578T breast
DU-145 prostate = tested on: DU-145 prostate
CAKI-1 renal = tested on: CAKI-1 renal
OVCAR-4 ovarian = tested on: OVCAR-4 ovarian
HCC-2998 colon = tested on: HCC-2998 colon
UACC-257 melanoma = tested on: UACC-257 melanoma
NCI-H522 lung = tested on: NCI-H522 lung
TK-10 renal = tested on: TK-10 renal
HL-60(TB) leukemia = tested on: HL-60(TB) leukemia
BT-549 breast = tested on: BT-549 breast
LOX IMVI melanoma = tested on: LOX IMVI melanoma
SK-MEL-5 melanoma = tested on: SK-MEL-5 melanoma
SNB-19 CNS = tested on: SNB-19 CNS
MDA-MB-435 = tested on: MDA-MB-435
SK-MEL-28 melanoma = tested on: SK-MEL-28 melanoma
IGROV1 ovarian = tested on: IGROV1 ovarian
COLO 205 colon = tested on: COLO 205 colon
HCT-15 colon = tested on: HCT-15 colon
SF-268 CNS = tested on: SF-268 CNS
HOP-92 NSCLC = tested on: HOP-92 NSCLC
MDA-MB-231 breast = tested on: MDA-MB-231 breast

Cn1cc(C2=C(c3cn(C)c4cc(N)ccc34)C(=O)NC2=O)c2ccccc21
GI50 (NCI-H226 lung): 3.59 µM
TGI (NCI-H226 lung): 17.2 µM
GI50 (T-47D breast): 5.7 µM
TGI (T-47D breast): > 21.6 µM
GI50 (SK-MEL-2 melanoma): 4.26 µM
TGI (SK-MEL-2 melanoma): 10.6 µM
GI50 (HCT-116 colon): 1.28 µM
TGI (HCT-116 colon): > 25 µM
GI50 (SF-295 CNS): 0.909 µM
TGI (SF-295 CNS): > 25 µM
GI50 (SF-539 CNS): 0.568 µM
TGI (SF-539 CNS): 2.27 µM
GI50 (RXF 393 renal): 1.84 µM
TGI (RXF 393 renal): 7.59 µM
GI50 (U251 CNS): 1.41 µM
TGI (U251 CNS): 10.2 µM
GI50 (NCI-H460 lung): 1.4 µM
TGI (NCI-H460 lung): > 25 µM
GI50 (SR leukemia): 0.364 µM
TGI (SR leukemia): 4.02 µM
GI50 (OVCAR-3 ovarian): 0.721 µM
TGI (OVCAR-3 ovarian): > 12.2 µM
GI50 (OVCAR-5 ovarian): 8.13 µM
TGI (OVCAR-5 ovarian): > 21.9 µM
GI50 (K-562 leukemia): 0.396 µM
TGI (K-562 leukemia): > 23.8 µM
GI50 (M14 melanoma): 4.96 µM
TGI (M14 melanoma): > 25 µM
GI50 (UACC-62 melanoma): 3.44 µM
TGI (UACC-62 melanoma): 8.39 µM
GI50 (SNB-75 CNS): 0.252 µM
TGI (SNB-75 CNS): 2.09 µM
GI50 (UO-31 renal): 2.54 µM
TGI (UO-31 renal): 15.4 µM
GI50 (SK-OV-3 ovarian): 2.25 µM
TGI (SK-OV-3 ovarian): > 25 µM
GI50 (MALME-3M melanoma): 11 µM
TGI (MALME-3M melanoma): > 22.3 µM
GI50 (SN12C renal): 3.44 µM
TGI (SN12C renal): 17 µM
GI50 (HT29 colon): 1.07 µM
TGI (HT29 colon): 6.8 µM
GI50 (A549 NSCLC): 3.09 µM
TGI (A549 NSCLC): > 25 µM
GI50 (CCRF-CEM leukemia): 1.02 µM
TGI (CCRF-CEM leukemia): > 11.2 µM
GI50 (NCI-H23 lung): 3.72 µM
TGI (NCI-H23 lung): 11.8 µM
GI50 (786-0 renal): 3.42 µM
TGI (786-0 renal): > 25 µM
GI50 (KM12 colon): 1.45 µM
TGI (KM12 colon): 11.8 µM
GI50 (HOP-62 NSCLC): 3.86 µM
TGI (HOP-62 NSCLC): > 25 µM
GI50 (ACHN renal): 2.59 µM
TGI (ACHN renal): 12.1 µM
GI50 (MCF7 breast): 0.696 µM
TGI (MCF7 breast): > 16.8 µM
GI50 (A498 renal): 0.944 µM
TGI (A498 renal): 7.54 µM
GI50 (SW-620 colon): 1.5 µM
TGI (SW-620 colon): > 25 µM
GI50 (MOLT-4 leukemia): 2.26 µM
TGI (MOLT-4 leukemia): > 18.7 µM
GI50 (OVCAR-8 ovarian): 4.18 µM
TGI (OVCAR-8 ovarian): > 25 µM
GI50 (NCI/ADR-RES ovarian): 4.58 µM
TGI (NCI/ADR-RES ovarian): 24.2 µM
GI50 (PC-3 prostate): 2.92 µM
TGI (PC-3 prostate): > 20.6 µM
GI50 (RPMI-8226 leukemia): 2.92 µM
TGI (RPMI-8226 leukemia): 11.6 µM
GI50 (HS 578T breast): 1.06 µM
TGI (HS 578T breast): > 19.6 µM
GI50 (DU-145 prostate): 1.84 µM
TGI (DU-145 prostate): 16.8 µM
GI50 (CAKI-1 renal): 1.39 µM
TGI (CAKI-1 renal): > 15 µM
GI50 (OVCAR-4 ovarian): 4.41 µM
TGI (OVCAR-4 ovarian): 17.4 µM
GI50 (HCC-2998 colon): 1.5 µM
TGI (HCC-2998 colon): > 25 µM
GI50 (UACC-257 melanoma): 5.89 µM
TGI (UACC-257 melanoma): 18.1 µM
GI50 (NCI-H522 lung): 1.36 µM
TGI (NCI-H522 lung): 8.53 µM
GI50 (TK-10 renal): 4.03 µM
TGI (TK-10 renal): 14.3 µM
GI50 (HL-60(TB) leukemia): 1.1 µM
TGI (HL-60(TB) leukemia): 5.52 µM
GI50 (BT-549 breast): 4.32 µM
TGI (BT-549 breast): 14.6 µM
GI50 (LOX IMVI melanoma): 3.1 µM
TGI (LOX IMVI melanoma): > 25 µM
GI50 (SK-MEL-5 melanoma): 1.09 µM
TGI (SK-MEL-5 melanoma): 5.76 µM
GI50 (SNB-19 CNS): 5.45 µM
TGI (SNB-19 CNS): 24.3 µM
GI50 (MDA-MB-435): 0.112 µM
TGI (MDA-MB-435): > 21.2 µM
GI50 (SK-MEL-28 melanoma): 4.71 µM
TGI (SK-MEL-28 melanoma): 18.4 µM
GI50 (IGROV1 ovarian): 6.05 µM
TGI (IGROV1 ovarian): 17.6 µM
GI50 (COLO 205 colon): 1.63 µM
TGI (COLO 205 colon): 9.59 µM
GI50 (HCT-15 colon): 1.04 µM
TGI (HCT-15 colon): > 21.6 µM
GI50 (SF-268 CNS): 3.67 µM
TGI (SF-268 CNS): 13.7 µM
GI50 (HOP-92 NSCLC): 5.86 µM
TGI (HOP-92 NSCLC): > 18.9 µM
GI50 (MDA-MB-231 breast): 4.09 µM
TGI (MDA-MB-231 breast): 16.2 µM
